In brackets after ≈: the same amount, converted by molar mass.

The values below come from ChEMBL document CHEMBL5104103 (J Med Chem, 2022).

The nature of data set [1]: Clearance in rat at 2 mg/kg, iv. Type of data set: ADME, organism-based. To be noted: in vivo.
Data set [2] concerns the target Epidermal growth factor receptor (Homo sapiens, UniProt P00533). The data set is described as follows: Inhibition of EGFR (unknown origin) using peptide substrate in presence of ATP by caliper electrophoresis method.
In data set [3] the target is Receptor tyrosine-protein kinase erbB-4 (Homo sapiens, UniProt Q15303). The data set is described as follows: Inhibition of ERBB4 (unknown origin) using peptide substrate in presence of ATP by caliper electrophoresis method.
Chain of Receptor tyrosine-protein kinase erbB-4 (Q15303 whole entry): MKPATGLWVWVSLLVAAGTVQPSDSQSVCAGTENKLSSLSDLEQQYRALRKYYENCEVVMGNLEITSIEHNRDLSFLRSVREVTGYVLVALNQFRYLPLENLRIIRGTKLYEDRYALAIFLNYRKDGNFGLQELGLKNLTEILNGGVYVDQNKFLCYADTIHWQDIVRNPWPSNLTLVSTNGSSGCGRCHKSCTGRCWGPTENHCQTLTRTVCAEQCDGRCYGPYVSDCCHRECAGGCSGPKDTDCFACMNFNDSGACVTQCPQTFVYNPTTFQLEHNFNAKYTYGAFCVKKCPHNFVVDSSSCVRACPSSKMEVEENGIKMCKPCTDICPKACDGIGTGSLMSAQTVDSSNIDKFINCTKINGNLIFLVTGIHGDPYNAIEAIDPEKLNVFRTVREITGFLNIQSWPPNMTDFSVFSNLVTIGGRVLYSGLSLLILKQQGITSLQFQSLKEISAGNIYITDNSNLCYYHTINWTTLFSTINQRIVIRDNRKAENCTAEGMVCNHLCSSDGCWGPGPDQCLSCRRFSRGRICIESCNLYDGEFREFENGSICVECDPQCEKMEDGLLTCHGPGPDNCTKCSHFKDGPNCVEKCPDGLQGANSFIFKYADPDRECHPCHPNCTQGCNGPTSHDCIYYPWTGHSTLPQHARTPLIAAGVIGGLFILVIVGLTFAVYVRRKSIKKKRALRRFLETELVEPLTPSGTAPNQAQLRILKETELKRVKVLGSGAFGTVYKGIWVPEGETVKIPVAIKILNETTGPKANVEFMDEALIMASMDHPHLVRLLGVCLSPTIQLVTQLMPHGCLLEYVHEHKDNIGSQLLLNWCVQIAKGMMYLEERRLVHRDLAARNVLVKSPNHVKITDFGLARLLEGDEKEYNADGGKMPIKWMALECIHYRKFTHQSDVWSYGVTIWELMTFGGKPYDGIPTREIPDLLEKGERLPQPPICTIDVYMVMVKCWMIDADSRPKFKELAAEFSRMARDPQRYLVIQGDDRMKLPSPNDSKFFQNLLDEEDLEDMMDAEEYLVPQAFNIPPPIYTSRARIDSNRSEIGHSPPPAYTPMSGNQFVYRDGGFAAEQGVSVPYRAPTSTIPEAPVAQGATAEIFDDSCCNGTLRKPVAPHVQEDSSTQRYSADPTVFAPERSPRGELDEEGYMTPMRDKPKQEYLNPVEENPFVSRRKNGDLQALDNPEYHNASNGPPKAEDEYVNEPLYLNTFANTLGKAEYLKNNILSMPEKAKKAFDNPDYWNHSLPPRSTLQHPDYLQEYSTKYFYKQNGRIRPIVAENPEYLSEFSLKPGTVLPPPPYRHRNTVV
For data set [4], the target named is T1, Tyrosine-protein kinase JAK3 (Homo sapiens, UniProt P52333).
T1 sequence (P52333 whole entry): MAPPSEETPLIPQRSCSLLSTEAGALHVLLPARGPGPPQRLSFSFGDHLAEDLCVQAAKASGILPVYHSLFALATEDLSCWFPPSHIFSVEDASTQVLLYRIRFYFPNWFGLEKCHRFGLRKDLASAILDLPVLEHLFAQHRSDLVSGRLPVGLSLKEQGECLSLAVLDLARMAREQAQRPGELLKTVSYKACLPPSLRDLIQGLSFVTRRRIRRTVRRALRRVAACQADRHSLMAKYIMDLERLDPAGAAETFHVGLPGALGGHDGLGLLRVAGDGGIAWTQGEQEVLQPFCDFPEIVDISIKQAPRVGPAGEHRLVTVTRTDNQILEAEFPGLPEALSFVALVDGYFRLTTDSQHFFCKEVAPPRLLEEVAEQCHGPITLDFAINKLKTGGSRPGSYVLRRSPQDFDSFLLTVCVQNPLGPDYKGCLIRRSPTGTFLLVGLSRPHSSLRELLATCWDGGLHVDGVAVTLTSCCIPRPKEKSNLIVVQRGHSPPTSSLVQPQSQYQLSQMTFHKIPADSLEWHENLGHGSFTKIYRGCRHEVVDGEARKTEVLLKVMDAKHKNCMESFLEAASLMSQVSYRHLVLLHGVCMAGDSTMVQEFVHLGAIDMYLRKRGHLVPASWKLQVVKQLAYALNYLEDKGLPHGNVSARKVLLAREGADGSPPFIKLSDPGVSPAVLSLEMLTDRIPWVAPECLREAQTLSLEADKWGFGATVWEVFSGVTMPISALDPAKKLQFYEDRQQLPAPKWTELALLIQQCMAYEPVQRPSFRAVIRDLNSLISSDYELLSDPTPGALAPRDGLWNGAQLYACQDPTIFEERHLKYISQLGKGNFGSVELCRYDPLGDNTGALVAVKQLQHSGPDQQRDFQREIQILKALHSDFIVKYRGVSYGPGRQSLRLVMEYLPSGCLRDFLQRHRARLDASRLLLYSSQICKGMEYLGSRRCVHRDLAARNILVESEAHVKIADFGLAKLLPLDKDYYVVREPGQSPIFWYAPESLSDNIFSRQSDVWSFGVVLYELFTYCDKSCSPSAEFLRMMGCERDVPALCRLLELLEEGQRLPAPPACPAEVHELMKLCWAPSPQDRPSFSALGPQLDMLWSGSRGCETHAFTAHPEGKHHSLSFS
The experiment in a line: Inhibition of JAK3 (unknown origin) using peptide substrate in presence of ATP by caliper electrophoresis method.

A short description of data set [5]: Solubility of compound in PBS at pH 7 by LCMS/MS analysis. It is filed as physicochemical.
The nature of data set [6]: Clearance in human liver S9 fraction assessed as measuring per mg protein by LCMS/MS analysis. As to conditions: read-out: CLH. Type of data set: ADME, subcellular.
The target of data set [7] is T2, Tyrosine-protein kinase BTK (Homo sapiens, UniProt Q06187). The data set is described as follows: Inhibition of BTK (unknown origin) using peptide substrate in presence of ATP by caliper electrophoresis method.
T2 sequence (Q06187 whole entry): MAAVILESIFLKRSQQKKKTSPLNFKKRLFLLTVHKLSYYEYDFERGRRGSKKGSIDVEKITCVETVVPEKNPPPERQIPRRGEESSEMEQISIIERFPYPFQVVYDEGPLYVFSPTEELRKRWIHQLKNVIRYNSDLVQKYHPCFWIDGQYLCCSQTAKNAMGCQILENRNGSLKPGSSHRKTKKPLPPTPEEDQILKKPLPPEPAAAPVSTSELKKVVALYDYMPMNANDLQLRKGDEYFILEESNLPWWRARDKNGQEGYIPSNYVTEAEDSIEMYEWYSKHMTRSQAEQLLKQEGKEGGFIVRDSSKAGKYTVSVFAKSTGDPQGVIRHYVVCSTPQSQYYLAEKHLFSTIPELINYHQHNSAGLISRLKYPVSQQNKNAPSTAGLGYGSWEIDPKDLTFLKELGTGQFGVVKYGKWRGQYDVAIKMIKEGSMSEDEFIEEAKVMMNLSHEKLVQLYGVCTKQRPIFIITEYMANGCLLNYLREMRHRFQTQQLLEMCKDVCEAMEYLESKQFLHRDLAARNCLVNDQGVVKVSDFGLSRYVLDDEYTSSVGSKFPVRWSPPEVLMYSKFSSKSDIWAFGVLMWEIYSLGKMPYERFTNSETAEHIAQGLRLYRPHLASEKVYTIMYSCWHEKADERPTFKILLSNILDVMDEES
Data set [8] has as its target T2, Tyrosine-protein kinase BTK. The experiment in a line: Inhibition of biotinylated-labeled BTK-selective probe binding to BTK in human Ramos assessed as target occupancy pretreated for 1 hr followed by probe addition measured for 18 hrs by AlphaScreen assay. Type of data set: cell-based.
Data set [9] has as its target T3, Tyrosine-protein kinase Tec (Homo sapiens) (UniProt P42680).
T3 sequence (whole entry): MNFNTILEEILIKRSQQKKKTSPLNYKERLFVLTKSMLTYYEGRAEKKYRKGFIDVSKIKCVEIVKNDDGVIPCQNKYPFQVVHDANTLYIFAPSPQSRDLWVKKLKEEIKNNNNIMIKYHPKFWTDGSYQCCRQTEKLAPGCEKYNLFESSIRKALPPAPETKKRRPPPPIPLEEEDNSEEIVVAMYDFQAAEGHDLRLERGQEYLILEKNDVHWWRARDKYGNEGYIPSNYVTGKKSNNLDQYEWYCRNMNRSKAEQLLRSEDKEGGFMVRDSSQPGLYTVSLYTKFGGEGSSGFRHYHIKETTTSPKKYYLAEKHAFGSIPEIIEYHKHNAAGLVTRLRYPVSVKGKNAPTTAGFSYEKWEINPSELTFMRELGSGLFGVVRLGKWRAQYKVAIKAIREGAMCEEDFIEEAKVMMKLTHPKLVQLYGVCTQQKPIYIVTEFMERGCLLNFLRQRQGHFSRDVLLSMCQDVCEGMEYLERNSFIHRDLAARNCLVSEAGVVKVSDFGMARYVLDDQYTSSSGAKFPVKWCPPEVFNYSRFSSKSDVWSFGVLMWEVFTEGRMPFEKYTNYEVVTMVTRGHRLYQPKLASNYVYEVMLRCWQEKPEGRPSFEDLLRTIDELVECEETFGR
The data set is described as follows: Displacement of competitive tracer from TEC (unknown origin) assessed as target occupancy at […] preincubated for 15 mins measured for 1 hr relative to control. As to conditions: dose 1.5 µM.

The target of data set [10] is T3, Tyrosine-protein kinase Tec (Homo sapiens). The experiment in a line: Displacement of competitive tracer from TEC (unknown origin) assessed as target occupancy at […] preincubated for 15 mins measured for 6 hrs relative to control. To be noted: dose 1.5 µM.
Data set [11] in a line: Drug concentration in plasma of collagen-induced arthritis Lewis rat model 3 mg/kg/day, po measured after 12 hrs post-collection of plasma. It is filed as ADME, organism-based. As to conditions: in vivo, BLD = below limit of detection.
Data set [12] can be described thus: Drug concentration in plasma of collagen-induced arthritis Lewis rat model 30 mg/kg/day, po measured after 12 hrs post-collection of plasma. Type of data set: ADME, organism-based.
Data set [13] is described as follows: Toxicity in female Beagle dog assessed as reduction in activity up to 400 mg/kg/day qd for 12 weeks. It is filed as organism-based, Canis lupus familiaris. As to conditions: in vivo, 2016 h.
The nature of data set [14]: Toxicity in male Beagle dog assessed as NOAEL. The arrangement: species or system Canis lupus familiaris. To be noted: in vivo.

Chain of Epidermal growth factor receptor (P00533 whole entry): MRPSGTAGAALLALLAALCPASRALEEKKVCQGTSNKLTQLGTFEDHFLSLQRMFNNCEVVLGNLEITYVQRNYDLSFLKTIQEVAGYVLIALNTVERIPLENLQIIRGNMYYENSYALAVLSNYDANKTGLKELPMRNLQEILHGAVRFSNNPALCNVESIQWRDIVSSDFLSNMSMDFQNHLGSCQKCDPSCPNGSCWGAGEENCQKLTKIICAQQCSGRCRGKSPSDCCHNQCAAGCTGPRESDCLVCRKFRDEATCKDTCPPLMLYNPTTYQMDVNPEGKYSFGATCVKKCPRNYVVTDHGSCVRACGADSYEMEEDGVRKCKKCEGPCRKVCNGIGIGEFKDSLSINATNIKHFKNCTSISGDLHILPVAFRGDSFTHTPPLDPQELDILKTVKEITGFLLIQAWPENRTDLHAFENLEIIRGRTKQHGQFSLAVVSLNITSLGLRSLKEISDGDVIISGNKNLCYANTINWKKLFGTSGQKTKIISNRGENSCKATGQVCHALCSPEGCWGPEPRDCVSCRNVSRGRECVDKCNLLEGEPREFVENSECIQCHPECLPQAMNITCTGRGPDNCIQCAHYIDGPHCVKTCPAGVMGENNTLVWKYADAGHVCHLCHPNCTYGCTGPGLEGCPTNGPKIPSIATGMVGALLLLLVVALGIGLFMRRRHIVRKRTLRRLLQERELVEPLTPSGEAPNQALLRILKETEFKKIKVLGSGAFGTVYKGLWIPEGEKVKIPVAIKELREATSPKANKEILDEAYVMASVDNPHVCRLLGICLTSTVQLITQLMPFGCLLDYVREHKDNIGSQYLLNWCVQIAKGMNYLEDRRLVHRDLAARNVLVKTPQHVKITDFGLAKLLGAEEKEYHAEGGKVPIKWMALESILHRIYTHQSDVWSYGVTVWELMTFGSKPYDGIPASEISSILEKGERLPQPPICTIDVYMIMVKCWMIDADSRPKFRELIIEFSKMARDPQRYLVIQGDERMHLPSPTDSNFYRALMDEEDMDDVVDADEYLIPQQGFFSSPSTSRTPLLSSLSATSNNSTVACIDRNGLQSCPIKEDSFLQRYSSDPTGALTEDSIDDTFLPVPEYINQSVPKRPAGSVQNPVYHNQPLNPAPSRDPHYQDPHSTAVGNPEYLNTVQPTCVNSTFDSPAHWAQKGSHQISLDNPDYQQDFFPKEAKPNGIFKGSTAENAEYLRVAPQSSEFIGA

With `CN1CCN(C(C)(C)/C=C(\C#N)C(=O)N2CCC[C@@H](n3nc(-c4ccc(Oc5ccccc5)cc4F)c4c(N)ncnc43)C2)CC1`, in [1], the clearance was 119 mL/min/kg. Further, the IC50 in [2] was 980 nM; in data set [3], 41 nM; in [4], greater than 5000 nM. Further, in [5], the solubility was 315 µM (≈ 196 µg/mL). Further, in data set [6], the microsomal CLint came to 30 µL/min/mg.
`CC(C)(/C=C(/C#N)C(=O)N1CCC[C@@H]1Cn1nc(-c2ccc(Oc3ccccc3)cc2F)c2c(N)ncnc21)N1CCOCC1` returned a clearance in data set [1] of 120 mL/min/kg. The IC50 was 72 nM in data set [7]; 35.9 nM in data set [8]; 3000 nM in data set [2]; 177 nM in data set [3]; greater than 5000 nM in data set [4]. Besides, the solubility in [5] was 215 µM (≈ 131 µg/mL). Further, the microsomal CLint in [6] stood at 152 µL/min/mg.
In the case of `CC(C)(C)/C=C(\C#N)C(=O)N1CCC[C@@H](n2nc(-c3ccc(Oc4ccccc4)cc3F)c3c(N)ncnc32)C1` [ATUZABRUTINIB], the IC50 in data set [7] was 1.8 nM; in data set [8], 30.1 nM; in data set [2] it was 368 nM; in data set [3], 22 nM; in [4] it was greater than 5000 nM. In addition, the figures for the Activity in [9], in data set [10] and in data set [13] were 87%, 80% and “Toxic”, respectively. In [5], the solubility was 2.1 µM (≈ 1.13 µg/mL). Moreover, the microsomal CLint in [6] is 77 µL/min/mg. The Cp entry in [11] is “Bld”. Moreover, the concentration at 12 h in [12] came to 51.8 ng/mL. Further, the NOAEL in data set [14] came to 400 mg/kg.

For orientation: clearance means the rate of elimination divided by the concentration. For orientation: IC50 means the midpoint of a concentration-inhibition curve. The solubility is the dissolved amount per volume that the medium holds. The low end stands for a poorly soluble substance, the high end for a readily soluble substance. In general, NOAEL refers to the highest dose or exposure tested at which no adverse effect was seen.
